{"source": "patent US20160244718A1", "about": "“REPROGRAMMING OF PLURIPOTENT STEM CELLS FOR IMPROVED CONTROL OF THEIR DIFFERENTIATION PATHWAYS” (ETH ZURICH, priority 2013, published 2016)", "test_system": "pPSCs (cESCs d7) and PSCs (WT ESCs)", "assay": "Cardiogenic differentiation induced by icariin, Real-Time PCR of cardiogenic markers", "format": "cell-based, mouse", "conditions": "12 days stimulation with icariin (d7 to d7+12), RNA isolated every 4 days, normalized to Gapdh; pPSCs compared with PSCs", "description": "Total RNA was isolated from ˜1×10^6 cells per sample using the RNeasy Plus Mini Kit (Qiagen, Hombrechtikon, Switzerland) with RNase-free DNase treatment (Qiagen) following the manufacturer's protocol. For reverse transcription (RT) 2 μg total RNA was reverse transcribed into cDNA in a reaction volume of 20 μl using the iScript™ Advanced cDNA Synthesis Kit (Bio-Rad). Each RT reaction mix contained 4 μl 5× iScript advanced reaction mix and 1 μl iScript advanced reverse transcriptase. The 20 μl reactions were incubated at 42° C. for 30 min, at 85° C. for 5 min, and then held at 4° C. Real-Time PCR reactions were performed on the resulting cDNA using the CFX Connect™ Real-Time PCR Detection System (Bio-Rad), SsoAdvanced™ SYBR® Green Supermix (Bio-Rad) and Hard-Shell® Low-Profile Thin-Wall 96-Well Skirted PCR Plates (Bio-Rad). Briefly, following the RT step, 5 μl of the 100fold-diluted RT reaction was combined with 15 μl mastermix (2× SsoAdvanced™ SYBR® Green Supermix, forward primer, reverse primer and nuclease-free water) in a 20 μl final volume. PCR reactions were incubated at 95° C. for 3 min, followed by 39 cycles of 95° C. for 10 s and 62° C. for 30 s; and were run as duplicates of two independent experiments. […] Results were analyzed using CFX Manager™ software (Bio-Rad) and mRNA expression levels relative to Gapdh were calculated based on the AACt method. […]", "data": [{"smiles": "COc1ccc(-c2oc3c(CC=C(C)C)c(O[C@@H]4O[C@H](CO)[C@@H](O)[C@H](O)[C@H]4O)cc(O)c3c(=O)c2O[C@@H]2O[C@@H](C)[C@H](O)[C@@H](O)[C@H]2O)cc1", "note": "[icariin]", "values": [{"measurement": "mRNA expression of all tested cardiogenic markers", "value": "induced higher in pPSCs than in PSCs"}]}]}
